This note sets out measurements from patent publication US12150447B2, “Plant growth regulator” (University of Washington, priority 2017, dated 2024).

The target of experiment [1] is T1, mutant auxin receptor (TIR1 F79A) (Arabidopsis thaliana, UniProt Q570C0, F79A).
T1 construct: expressed in transfected cells; host or cells: Saccharomyces cerevisiae strain EGY48
Briefly: Evaluation of binding to auxin receptor (yeast two-hybrid assay), mutant TIR1 F79A. The conditions noted are these: yeast two-hybrid according to Test Example 1.

The target in experiment [2] is T2, wild-type auxin receptor (TIR1) (Arabidopsis thaliana, UniProt Q570C0).
T2 construct: expressed in transfected cells; host or cells: Saccharomyces cerevisiae strain EGY48
T2 sequence (Q570C0 1-594): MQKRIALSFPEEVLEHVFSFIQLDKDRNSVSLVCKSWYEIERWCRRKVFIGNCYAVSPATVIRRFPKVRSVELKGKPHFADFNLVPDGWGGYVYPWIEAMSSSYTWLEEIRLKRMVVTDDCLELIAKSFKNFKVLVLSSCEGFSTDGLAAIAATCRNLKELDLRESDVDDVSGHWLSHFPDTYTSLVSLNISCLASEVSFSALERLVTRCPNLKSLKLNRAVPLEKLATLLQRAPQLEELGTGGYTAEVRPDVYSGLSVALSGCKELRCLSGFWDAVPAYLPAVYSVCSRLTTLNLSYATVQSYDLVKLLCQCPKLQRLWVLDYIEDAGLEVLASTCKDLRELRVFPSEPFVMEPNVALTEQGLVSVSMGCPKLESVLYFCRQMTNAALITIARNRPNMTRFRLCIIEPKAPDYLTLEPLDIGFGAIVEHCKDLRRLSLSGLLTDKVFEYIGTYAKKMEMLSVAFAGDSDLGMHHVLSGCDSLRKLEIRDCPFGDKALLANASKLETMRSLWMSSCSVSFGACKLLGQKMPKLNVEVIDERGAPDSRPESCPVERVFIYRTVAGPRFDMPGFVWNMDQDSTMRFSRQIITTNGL
T2 sequence (Q38822 1-93 partner limits assumed): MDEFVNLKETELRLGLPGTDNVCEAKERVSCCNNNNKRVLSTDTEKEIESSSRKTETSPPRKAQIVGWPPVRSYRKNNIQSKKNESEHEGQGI
In words: Evaluation of binding to auxin receptor (yeast two-hybrid assay), wild-type receptor. The conditions noted are these: yeast EGY48, LacZ reporter, X-gal, 30° C. for 3 days; wild type auxin receptor with AUX/IAA protein. The method, then: (§1) Test Example 1: Evaluation of Binding to Auxin Receptor (Yeast Two-Hybrid Assay
(§2) Specifically, the inventors set up the assay in the following manner.
The transformant was cultured at 30° C. on an agar plate made of yeast growth medium (minimal SD base and -His/-Trp/-Ura dropout supplement). The colonies were picked up and incubated overnight in liquid SD/-His/-Trp/-Ura medium at 30° C. Afterwards, the medium was replaced with a liquid medium composed of minimal SD/Gal/Raf base, -His/-Trp/-Ura dropout supplement, 50 mM Na-phosphate buffer (pH 7.0), […] X-gal, and various concentrations of test compounds. After incubation at 30° C. for 3 days, the medium containing yeast was transferred to a white 96-well plate (flat bottom) and observed.
(§3) In Table 1, the concentration of “wt TIR” indicates the minimum concentration of the test compound in which the well turns blue when the wild type auxin receptor is used, whereas the concentration of “mut” indicates the minimum concentration of the test compound in which the well turns blue when the mutant auxin receptor (TIR1 F79G) is used.

In experiment [3] the target is T3, mutant auxin receptor (TIR1 F79S) (Arabidopsis thaliana, UniProt Q570C0, F79S).
T3 construct: expressed in transfected cells; host or cells: Saccharomyces cerevisiae strain EGY48
Briefly: Evaluation of binding to auxin receptor (yeast two-hybrid assay), mutant TIR1 F79S. The conditions noted are these: yeast two-hybrid according to Test Example 1.

Experiment [4] deals with T4, mutant auxin receptor (TIR1 F79G) (Arabidopsis thaliana, UniProt Q570C0, F79G).
T4 construct: expressed in transfected cells; host or cells: Saccharomyces cerevisiae strain EGY48
Briefly: Evaluation of binding to auxin receptor (yeast two-hybrid assay), mutant TIR1 F79G. The note with it: for TIR1 F79G: minimum concentration of the test compound at which the well turns blue: Table 2, repeated from Test Example 1, Table 1 for comparison; for mut TIR: minimum concentration of the test compound in which the well turns blue: yeast EGY48, LacZ reporter, X-gal, 30° C. for 3 days, TIR1 F79G with AUX/IAA protein.
Description: as §1, §2
Yeast strain EGY48 was transformed into a plasmid (pSH18-34) containing a LacZ expression cassette (LexA-operon: LacZ reporter) that is transcriptionally regulated by the LexA-operon, a plasmid derived from pGLex313 containing an expression cassette of LexA-DNA-binding domain fusion protein A (the wild-type auxin receptor: SEQ ID NO. 1, or mutant auxin receptor (TIR1 F79G) where the amino acid residue 79 (phenylalanine) in the wild-type is mutated to a glycine: SEQ ID NO. 2), and a plasmid derived from pJG4-5 containing an expression cassette of B42 transcription activator fusion protein B (AUX/IAA protein: SEQ ID NO: 3). The transformant was cultured at 30° C. on an agar plate made of yeast growth medium (minimal SD base and -His/-Trp/-Ura dropout supplement). The colonies were picked up and incubated overnight in liquid SD/-His/-Trp/-Ura medium at 30° C. Afterwards, the medium was replaced with a liquid medium composed of minimal SD/Gal/Raf base, -His/-Trp/-Ura dropout supplement, 50 mM Na-phosphate buffer (pH 7.0), […] X-gal, and various concentrations of test compounds. After incubation at 30° C. for 3 days, the medium containing yeast was transferred to a white 96-well plate (flat bottom) and observed. The lower the concentration of the test compound when blue color appears, the higher the binding between the test compound and the auxin receptor (wild type or mutant) is. Conversely, higher the concentration of test compound when the blue color appears for the first time, the lower the binding between the test compound and the auxin receptor (wild type or mutant).
as §3

Experiment [5] concerns Arabidopsis seeds expressing the mutant auxin receptor (TIR1 F79G). Briefly: Root elongation assay (Test Example 5), TIR1 F79G seeds. It counts as in vivo. The note with it: 35S:TIR1 F79G seeds, 0.1 μM; FIG. 4. The method, then:
(§4) FIG. 4 This is a diagram showing the results of root elongation assay in Test Example 5. On the left side of the photo, “35S:TIR1^F79G” indicates experiments using Arabidopsis seeds having an expression cassette of a mutant auxin receptor (TIR1 F79G), whereas “35S:TIR1^WT” indicates Arabidopsis seeds expressing the wild type auxin receptor (TIR1). On the upper part of the photo, “DMSO” indicates experiments where the plants are not treated with test compounds, “IAA(1) 0.1 μM” indicates experiments where auxin (indole-3-acetic acid) is used as the test compound, and “21 0.1 μM” indicates experiments where the auxin derivative synthesized in Example 30 is used as the test compound.
(§5) Arabidopsis seeds having the expression cassette of mutant auxin receptor (TIR1 F79G) (SEQ ID NO: B) or wild-type Arabidopsis seeds without said expression cassette were sterilized and stored at 4° C. in the dark for several days. The seeds were transferred to 0.5× Murashige and Skoog (MS) liquid medium and incubated for 1 day at 22° C. in the light with shaking at 140 rpm. The test compound was added to the medium at various concentrations and the seeds were further incubated for 1 week. […] If an auxin response signal has been produced in the root, root elongation will be suppressed.
(§6) Test Example 5: Evaluation of Plant Growth Regulating Action 4 (Root Elongation Assay […]

Experiment [6] has as its system wild-type Arabidopsis seeds. In words: Root elongation assay (Test Example 5), wild-type seeds. The experiment is classed as in vivo. The note with it: wild-type seeds (35S:TIR1 WT in FIG. 4), 0.1 μM. The method, then: as §4, §5, §6

T4 sequence (Q570C0 whole entry F79G, one chain of several): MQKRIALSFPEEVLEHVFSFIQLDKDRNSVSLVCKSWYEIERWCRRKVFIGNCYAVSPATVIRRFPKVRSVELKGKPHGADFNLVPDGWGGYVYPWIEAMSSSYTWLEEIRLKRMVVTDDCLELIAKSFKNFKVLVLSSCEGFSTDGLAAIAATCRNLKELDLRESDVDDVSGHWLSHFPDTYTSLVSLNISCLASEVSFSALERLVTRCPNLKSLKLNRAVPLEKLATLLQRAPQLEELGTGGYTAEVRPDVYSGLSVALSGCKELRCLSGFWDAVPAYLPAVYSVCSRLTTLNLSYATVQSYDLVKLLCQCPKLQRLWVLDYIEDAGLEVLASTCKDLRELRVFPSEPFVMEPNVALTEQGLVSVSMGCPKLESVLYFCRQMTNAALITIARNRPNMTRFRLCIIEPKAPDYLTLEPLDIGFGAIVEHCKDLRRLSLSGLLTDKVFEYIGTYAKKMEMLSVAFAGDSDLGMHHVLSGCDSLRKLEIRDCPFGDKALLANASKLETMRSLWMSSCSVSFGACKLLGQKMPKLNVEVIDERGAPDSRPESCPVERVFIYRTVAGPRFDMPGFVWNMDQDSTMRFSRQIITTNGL
T3 sequence (Q570C0 whole entry F79S, one chain of several): as the sequence (Q570C0 whole entry F79G, one chain of several) above, with G79S counted along it
T1 sequence (Q570C0 whole entry F79A, one chain of several): as the sequence (Q570C0 whole entry F79G, one chain of several) above, with G79A counted along it

`O=C(O)Cc1c[nH]c2ccc(C3CCCCC3)cc12` [Compound 15, 2-(5-cyclohexyl-1H-indol-3-yl)acetic acid]: in experiment [1], the “TIR1 F79A: minimum concentration of the test compound at which the well turns blue” value was found to be 0.0001 µM. Further, in experiment [2], the “wt TIR: minimum concentration of the test compound in which the well turns blue” value (from here on “wt TIR: minimum concentration”) was found to be 0.1 µM. Also, the “TIR1 F79S: minimum concentration of test compound at which the well turns blue” value in experiment [3] is 0.001 µM. In experiment [4], the “TIR1 F79G: minimum concentration of the test compound at which the well turns blue” value was found to be 0.001 µM and the “mut TIR: minimum concentration of the test compound in which the well turns blue” value (shortened to “mut TIR: minimum concentration”) is 0.001 µM.

Take `O=C(O)Cc1c[nH]c2ccc(C34CC5CC(CC(C5)C3)C4)cc12` [Compound 21, 2-(5-((3r, 5r, 7r)-adamantan-1-yl)-1H-indol-3-yl)acetic acid]: the “TIR1 F79A: minimum concentration of the test compound at which the well turns blue” value in experiment [1] was determined as 0.00001 µM. For the same compound, the “inhibition of root elongation” value in experiment [5] is reported as “inhibited root elongation”. Further, in experiment [2], the “wt TIR: minimum concentration” value is 0.1 µM. Also, the “TIR1 F79S: minimum concentration of test compound at which the well turns blue” value in experiment [3] worked out at 0.0001 µM. Further, in experiment [4], the “TIR1 F79G: minimum concentration of the test compound at which the well turns blue” value came to 0.001 µM and the “mut TIR: minimum concentration” value worked out at 0.001 µM. The “inhibition of root elongation” value in experiment [6] was “does not inhibit root elongation”.

For the compound `CCC(C)COc1ccc2[nH]cc(CC(=O)O)c2c1` (stereo not drawn) [MK-322, 2-(5-(2-methylbutoxy)-1H-indol-3-yl)acetic acid], the “wt TIR: minimum concentration” value in experiment [2] was 10 µM. Besides, the “mut TIR: minimum concentration” value in experiment [4] worked out at 0.1 µM.

Consider `CCCCCCCOc1ccc2[nH]cc(CC(=O)O)c2c1` [MK-323, 2-(5-(heptyloxy)-1H-indol-3-yl)acetic acid], for which, in experiment [2], the “wt TIR: minimum concentration” value is 100 µM. Also, the “mut TIR: minimum concentration” value in experiment [4] is 10 µM.

For the compound `O=C(O)Cc1c[nH]c2ccc(OCC3CCCCC3)cc12` [MK-333, 2-(5-(cyclohexylmethoxy)-1H-indol-3-yl)acetic acid], the “wt TIR: minimum concentration” value in experiment [2] is 100 µM. Also, the “mut TIR: minimum concentration” value in experiment [4] was 0.1 µM.

Take `Cc1ccc(COc2ccc3[nH]cc(CC(=O)O)c3c2)cc1` [MK-350, 2-(5-((4-methylbenzyl)oxy)-1H-indol-3-yl)acetic acid]: the “wt TIR: minimum concentration” value in experiment [2] was over 100 µM. For the same compound, in experiment [4], the “mut TIR: minimum concentration” value is 100 µM.

With `Cc1cc(C)cc(-c2ccc3[nH]cc(CC(=O)O)c3c2)c1` [MK-379, 2-(5-(3,5-dimethylphenyl)-1H-indol-3-yl)acetic acid], the “wt TIR: minimum concentration” value in experiment [2] was determined as 100 µM. In addition, the “mut TIR: minimum concentration” value in experiment [4] came out at 1 µM.

Take `CCCCOc1ccc2[nH]cc(CC(=O)O)c2c1` [RY-215, 2-(5-(butyloxy)-1H-indol-3-yl)acetic acid, reference compound]: the “wt TIR: minimum concentration” value in experiment [2] was found to be 10 µM. Further, the “mut TIR: minimum concentration” value in experiment [4] was determined as 0.1 µM.
